For assay [1], the target named is FGFR2 D2 domain (Homo sapiens, UniProt P21802). The assay can be described thus: ITC. The format is binding.
Assay [2] addresses FGFR2 D2 domain (Homo sapiens, UniProt P21802, A168S). Nature of the assay: ITC, supported by 1H-15N HSQC chemical shift perturbation. In kind it is binding. For orientation: ITC needs no label: the signal is the heat of the interaction.
In assay [3] the target is fibroblast growth factor (FGF-1) (UniProt P05230 16-155). The assay can be described thus: ITC.

Usually Kd stands for the concentration at which binding is half-saturated.

Chain of fibroblast growth factor (FGF-1) (P05230 16-155): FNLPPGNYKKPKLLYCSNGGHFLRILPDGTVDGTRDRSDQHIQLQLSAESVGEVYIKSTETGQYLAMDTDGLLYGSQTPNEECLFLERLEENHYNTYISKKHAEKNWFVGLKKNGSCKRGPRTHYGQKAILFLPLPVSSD
Chain of FGFR2 D2 domain (Homo sapiens, UniProt P21802, A168S) (P21802 145-255 A168S): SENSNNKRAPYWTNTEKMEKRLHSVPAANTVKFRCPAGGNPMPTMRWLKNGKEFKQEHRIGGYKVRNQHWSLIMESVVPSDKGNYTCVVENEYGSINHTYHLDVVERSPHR

For `O=S(=O)(O)OC[C@H]1O[C@@](COS(=O)(=O)O)(O[C@H]2O[C@H](COS(=O)(=O)O)[C@@H](OS(=O)(=O)O)[C@H](OS(=O)(=O)O)[C@H]2OS(=O)(=O)O)[C@@H](OS(=O)(=O)O)[C@@H]1OS(=O)(=O)O` [SOS, sucrose octasulfate], the Kd is approximately 2200 nM on FGFR2 D2 domain [1] and approximately 22000 nM at FGFR2 D2 domain [2].

B1: wild type D2 domain of fibroblast growth factor receptor 2 (FGFR2), residues 145-255 (domain or fragment, human, UniProt P21802 145-255, looked up)
chain: SENSNNKRAPYWTNTEKMEKRLHAVPAANTVKFRCPAGGNPMPTMRWLKNGKEFKQEHRIGGYKVRNQHWSLIMESVVPSDKGNYTCVVENEYGSINHTYHLDVVERSPHR
Molecule B1 showed a Kd in assay [3] of approximately 2000 nM.
